Results: patent publication US20110020235A1, “MR METHODS OF GRADING A TUMOR USING AN IMAGING MEDIUM THAT COMPRISES HYPERPOLARISED 13C-PYRUVATE” (priority 2007, published 2011)

Assay: T1 relaxation of 13C1-pyruvate in human full blood
Assay type: physicochemical
Conditions: human full blood at 37° C.

T1 relaxation: about 42 s
SMILES: CC(=O)C(=O)O [13C1-pyruvate]
